Literature values, collected in patent publication EP0268925B1, “Safened pesticidal resin compositions for controlling soil borne pests and process for the preparation thereof” (priority 1986, dated 1988).

Tests used:
rats = settings: technical material
[1] = inhalation hazard

Structure (SMILES) | acute oral LD50 value in rats (rats) | inhalation LD50 [1] [mg/kg body weight]
CCOP(=S)(OCC)SCSCC [phorate, O,O-diethyl-S-(ethylthiomethyl)phosphorodithioate] | 1.6-3.7 mg technical/kg | 35
CCOP(=S)(OCC)SCSC(C)(C)C [terbufos, O,O-diethyl S-[[(1,1-dimethylethyl)thio]methyl]phosphorodithioate] | 1.6 mg technical/kg | 35
